This note sets out measurements from patent US20250214951A1, “3-PHENYLISOXAZOLE DERIVATIVE, AND PHARMACEUTICAL COMPOSITION FOR PREVENTING OR TREATING EYE DISEASE, CONTAINING SAME AS ACTIVE INGREDIENT” (VASTHERA CO., LTD., priority 2022, published 2025).

The subject of assay [1] is p62 protein phosphorylated at serine 349 (p-p62 (S349)). Nature of the assay: Autophagy activation by increase of p-p62 (S349), Western immunoblotting. Type of assay: cell-based, human. The settings on record: indicated concentrations; FIG. 14. On the procedure:
The cells were treated with the test compounds at the indicated concentrations, and the autophagy activation effect through the increase of p62 protein (p-p62 (S349)) phosphorylated at serine 349 residue was measured by Western immunoblotting using an anti-p-p62 antibody, and the results are shown in FIG. 14. The increase in the intracellular P-p62 ([…]) level is one of the major indicators of autophagy activation.
Background: In western blotting, separated proteins are transferred to a membrane and probed.

The subject of assay [2] is A2E-BDP present in human retinal pigment epithelial cells (ARPE-19). The experiment in a line: Screening of ability to remove A2E-fluorescent labeling substance (A2E-BDP), lysate fluorescence. The assay is classed as cell-based. Conditions: ARPE-19, 24 h, ARPE-19 loaded with 10 μM A2E-BDP 24 h, test compound 50 μM once, fluorescence ex 485/em 535 nm, read-out: Capacity (%) to remove A2E-BDP at 50 μM. The method, then: (§1) The human retinal pigment epithelial cell line (ARPE-19) used in the experiment was provided by ATCC (American Type Culture Collection). The ARPE-19 cell line was cultured in DMEM medium containing 10% FBS. After culture, the cells were dispensed into 96-well plates at a concentration of 4×10^3 cells/well and cultured for 24 hours. The ARPE-19 cell line was treated with A2E-fluorescent labeling substance (A2E-BDP) at a concentration of 10 μM for 24 hours to induce the accumulation of A2E-BDP in the ARPE-19 cell line.
(§2) In order to evaluate the intracellular A2E removal ability of the compound of the present invention, an easily detectable A2E-fluorescent labeling substance (A2E-BDP) was used. The ARPE-19 cells prepared by the above method were treated with each test compound at a concentration of 50 μM once, and then cultured for 24 hours. The cells were lysed by adding a cell lysis buffer containing a protease inhibitor (50 mM Tris-chloride, pH 8.0, 150 mM sodium chloride, 1% NP-40, 1% sodium deoxycholate, 1% sodium dodecyl sulfate, and 2 mM ethylenediamine tetraacetic acid) to each 96-well. The prepared cell lysate was transferred to a white 96-well plate, and the fluorescence intensity was measured using a fluorescence microplate reader (VICTOR™ X3, Perkin Elmer, USA) (excitation 485 nm, emission 535 nm).

The next assay concerns A2E-BDP in ARPE-19 cells. The experiment in a line: A2E-BDP removal ability by concentration of other example compounds. Type of assay: cell-based, human. The settings on record: indicated concentrations; FIG. 13. On the procedure: as §1, §2
The A2E-fluorescent labeling substance (A2E-BDP) removal ability was evaluated according to Experimental Example 1 (except that the test compound was treated at the indicated concentration).

The next assay concerns LC3-II (autophagy flux). Nature of the assay: Autophagy flux in A2E-accumulated ARPE-19 with or without bafilomycin. Type of assay: cell-based, human. Conditions: A2E 25 μM 24 h; 10, 25, 50 μM, 12 h; bafilomycin 2 nM 4 h; FIG. 9. On the procedure: It was measured whether example 17 compound of the present invention increases autophagy flux in the ARPE-19 cell line in which A2E is accumulated. That is, the ARPE-19 cell line was dispensed into a 6-well plate at a concentration of 1×10^5 cells/well and cultured for 24 hours. The cells were treated with A2E at a concentration of 25 μM for 24 hours. The cells were treated with example 17 compound of the present invention at concentrations of 10, 25, and 50 μM for 12 hours each. The method of treating with bafilomycin (2 nM for 4 hours), preparing cell lysate, and measuring LC3-II by Western method was the same as in Experimental Example 8.

A further assay has as its system LC3-II. Nature of the assay: Autophagy activation in ARPE-19 (LC3-II Western, GFP-LC3 puncta). Type of assay: cell-based, human. The settings on record: 12 h. The method, then:
ARPE-19 was dispensed into a 6-well plate at a concentration of 1×10^5 cells/well and cultured for 24 hours. Then, cells were treated with example 17 compound of the present invention at concentrations of 10, 25, and 50 μM for 12 hours. Then, a cell lysis buffer containing a protease inhibitor was added to prepare a cell lysate. The LC3-II level was measured by Western immunoblotting using an anti-LC3-II antibody (Cell Signaling Technology, MA, USA). As an internal control, an antibody against β-actin (Cell Signaling Technology) was used and measured by Western immunoblotting in the same manner as above, and is shown in FIG. 6 (upper graph).
Meanwhile, intracellular autophagosome formation was observed as follows. The ARPE-19 cells were transfected with a plasmid expressing GFP-LC3 (Addgene Inc., MA, USA) using Lipofectamine™ 2000 reagent (Invitrogen, Carlsbad, CA, USA). After 48 hours of culture, the cells were treated with example 17 compound of the present invention at a concentration of 25 μM. After additional 12 hours of culture, the cells were fixed using 4% paraformaldehyde for 10 minutes. The cells were then washed three times with PBS every 5 minutes. Finally, the puncta formation of GFP-LC3 was observed using a confocal laser scanning microscope (Nikon, Tokyo, Japan). […]

The test system of the next assay is ARPE-19 cells. Nature of the assay: Inhibition of retinal pigment epithelial cell death induced by A2E and blue light. The assay is classed as cell-based, human. On the procedure:
A2E accumulated in human retinal pigment epithelial cells is known to induce cytotoxicity by blue light irradiation. Using a human retinal pigment epithelial cell line, the effect of the compound of the present invention on inhibiting cell death by blue light irradiation was measured.
The ARPE-19 cell line was dispensed into a 6-well plate at a concentration of 2×10^4 cells/well and cultured for 24 hours. In order to induce A2E accumulation in the ARPE-19 cell line, cells were treated with A2E three times at a concentration of 25 μM at 48-hour intervals. Twenty-four hours after the last A2E treatment, cells were treated with example 17 compound of the present invention twice at 24-hour intervals at concentrations of 10, 25, and 50 μM, respectively. After an additional 24 hours of culture, blue light (BL, 430 nm, 7500 lux) was irradiated for 30 minutes and cultured for 24 hours. Cell death was observed under a microscope, and the number of living cells was measured using Image J (National Institutes of Health, USA) to calculate the quantitative cell viability.

For the molecule `C=CCOCc1cc(-c2cc(CC=C)ccc2OC)no1` [Example 17, 3-(5-allyl-2-methoxyphenyl)-5-((allyloxy)methyl)isoxazole], the “autophagy activation through increase of p-p62 (S349)” value in assay [1] was “activated autophagy in a concentration-dependent manner”. For the same molecule, the inhibition at 50 µM in assay [2] was ≥ 60%. Besides, the “A2E-BDP removal ability by concentration (amount of A2E)” value in the assay on A2E-BDP in ARPE-19 cells is reported as “concentration-dependent decrease in the amount of A2E”. In addition, the “autophagy flux in A2E-accumulated ARPE-19” value in the assay with LC3-II (autophagy flux) is “significantly increased the autophagy flux”. The “LC3-II level (Western immunoblotting)” value with LC3-II (ARPE-19, 10, 25, 50 μM, FIG. 6 graph) was “an increase in LC3-II”. Also, in the assay on LC3-II (GFP-LC3 transfected ARPE-19, 25 μM, FIG. 6 photograph), the “puncta formation of GFP-LC3 (confocal microscope)” value is listed as “intracellular LC3-II puncta were observed”. The “cell death induced by A2E and blue light (microscope)” value with ARPE-19 cells (A2E 25 μM x3, compound 10, 25, 50 μM twice, blue light 430 nm, 7500 lux, 30 min, FIG. 3 upper) was “cell death was significantly inhibited”. Moreover, the “cell viability quantified using Image J (cell death by A2E and blue light)” value in the assay with ARPE-19 cells (same model, FIG. 3 lower) was “statistically significantly inhibited”.
